This note sets out measurements from patent US12459898B2, “Polycationic amphiphiles as antimicrobial agents and methods using same” (Temple University-Of The Commonwealth System of Higher …, priority 2016, dated 2025).

Holding throughout (format): cell-based
Series [1] deals with community-acquired methicillin-resistant Staphylococcus aureus CA-MRSA (USA300-0114). Nature of the series: Minimum inhibitory concentration (MIC), CA-MRSA. The following applies: MH media, 37° C., 72 hours, visual growth. Here is the method:
(§1) As used herein, the term “minimum inhibitory concentration (MIC)” refers to the lowest concentration of an antimicrobial agent that will inhibit the visible growth of a microorganism after overnight incubation. MIC values against bacteria, for example, the Gram-positive Staphylococcus aureus and Enterococcus faecalis and the Gram-negative Escherichia coli and Pseudomonas aeruginosa were determined by standard methods. See also P. A. Wayne, Methods for Dilution Antimicrobial Tests for Bacteria that Grow Aerobically; Approved Standard, Ninth Edition, 2012, CLSI Document M07-A9, Vol. 32 No. 2, which is incorporated by reference herein in its entirety.
(§2) For all biological assays, laboratory strains of methicillin-susceptible Staphylococcus aureus MSSA (SH1000), Enterococcus faecalis (OG1RF), Escherichia coli (MC4100), Pseudomonas aeruginosa (PAO1), community-acquired methicillin-resistant Staphylococcus aureus CA-MRSA (USA300-0114), and hospital-acquired methicillin-resistant Staphylococcus aureus HA-MRSA (ATCC 33591) were grown with shaking at 37° C. overnight from freezer stocks in 10 mL of the indicated media.
(§3) Compounds were serially diluted two-fold from stock solutions to yield twelve test concentrations. Overnight S. aureus, E. faecalis, E. coli, P. aeruginosa, USA300-0114 (CA-MRSA), and ATCC 33591 (HA-MRSA) cultures diluted to ca. 10^6 cfu/mL in MH media and 100 μL were inoculated into each well of a U-bottom 96-well plate (BD Biosciences, BD 351177) containing 100 μL of compound solution. Plates were incubated statically at 37° C. for 72 hours upon which time wells were evaluated visually for bacterial growth. The MIC was determined as the lowest concentration of compound resulting in no bacterial growth visible to the naked eye, based on the majority of three independent experiments. Aqueous DMSO controls were conducted as appropriate for each compound.

The subject of series [2] is red blood cells (mechanically defibrinated sheep blood). Put plainly: Red blood cell (RBC) lysis assay (Lysis20). The following applies: for Lysis20 (highest concentration at which <20% of RBCs are lysed): sheep RBCs in PBS, 37° C., 1 hour, absorbance 540 nm, Table 1. An excerpt:
These assessments followed standard protocols (Minbiole et al., 2016, Tetrahedron, 72: 3559-3566, Forman et al., 2016, ChemMedChem, 11: 1401-1405, Forman et al., 2016, ChemMedChem, 11: 958-962, Mitchell et al., 2015, ChemBioChem, 16: 2299-2303, Jennings et al., 2015, ACS Inf. Dis, 1: 304-308, Paniak et al., 2014, Bioorg. Med. Chem. Lett, 24: 5824-5828, Ator et al., 2014, Bioorg. Med. Chem. Lett, 24: 3706-3709, Jennings et al., 2014, ChemBioChem, 15: 2211-2215, Black et al., 2014, Bioorg. Med. Chem. Lett, 24, 99-102, Grenier et al., 2012, Bioorg. Med. Chem. Lett, 22: 4055-4058).
RBC lysis assays were performed on mechanically defibrinated sheep blood (Hemostat Labs: DSB030). 1.5 mL of blood was placed into a microcentrifuge tube and centrifuged at 10,000 rpm for ten minutes. The supernatant was removed and the cells were resuspended with 1 mL of phosphate-buffered saline (PBS). The suspension was centrifuged as previously, the supernatant was removed, and cells were resuspended two more times. The final cell suspension was diluted twentyfold with PBS. The twentyfold suspension dilution was then aliquoted into microcentrifuge tubes containing compound serially diluted in PBS. TritonX (1% by volume) served as a positive control (100% lysis marker) and sterile PBS served as a negative control (0% lysis marker). Samples were then placed in an incubator at 37° C. and shaken at 200 rpm. After 1 hour, the samples were centrifuged at 10,000 rpm for ten minutes. The absorbance of the supernatant was measured with a UV spectrometer at a 540 nm wavelength.

Series [3] deals with hospital-acquired methicillin-resistant Staphylococcus aureus HA-MRSA (ATCC 33591). Nature of the series: microbe, parasite or virus in culture. The following applies: for MIC: Staphylococcus aureus, 72 h, read-out: MIC, HA-MRSA. Here is the method: as §1, §2, §3
For series [4], the system named is Enterococcus faecalis (OG1RF). Put plainly: Minimum inhibitory concentration (MIC), E. faecalis. As to conditions: MH media, 37° C., 72 hours, visual growth. Here is the method: as §1, §2, §3
Series [5] concerns methicillin-susceptible Staphylococcus aureus MSSA (SH1000). Nature of the series: Minimum inhibitory concentration (MIC), S. aureus. As to conditions: MH media, 37° C., 72 hours, visual growth. Here is the method:
as §1, §2, §3

The test system of series [6] is Pseudomonas aeruginosa (PAO1). Put plainly: Minimum inhibitory concentration (MIC), P. aeruginosa. The following applies: MH media, 37° C., 72 hours, visual growth. Here is the method:
as §1, §2, §3

The test system of series [7] is Escherichia coli (MC4100). Put plainly: Minimum inhibitory concentration (MIC), E. coli. As to conditions: MH media, 37° C., 72 hours, visual growth. Here is the method: as §1, §2, §3

In brackets after ≈: the same amount, converted by molar mass. A value given as a limit tells only on which side of the number the result lay.

For the compound `c1cncc(CN(Cc2cccnc2)Cc2cccnc2)c1` [Compound M3Pyr, reference compound], the MIC in series [1] was 250 µM (≈ 72.6 µg/mL); in series [3], 250 µM (≈ 72.6 µg/mL); in series [4] it was over 250 µM; in series [5] it was 250 µM (≈ 72.6 µg/mL); in series [6], over 250 µM; in series [7], over 250 µM. The “Lysis20 (highest concentration at which <20% of RBCs are lysed)” value in series [2] was over 250 μm.
For `CCCCCCCCCCCC[n+]1cccc(CN(Cc2ccc[n+](CCCCCCCCCCCC)c2)Cc2ccc[n+](CCCCCCCCCCCC)c2)c1` [M3Pyr-12,12,12], the MIC is 0.5 µM in series [1]; 1 µM in series [3]; 1 µM in series [4]; 1 µM in series [5]; 8 µM in series [6]; 1 µM in series [7]. For the same compound, the “Lysis20 (highest concentration at which <20% of RBCs are lysed)” value in series [2] stood at 4 μm.
As to `CCCCCCCCCCCCCCCC[n+]1ccc(CCCc2cc[n+](CCCCCCCCCCCCCCCC)cc2)cc1` [2Pyr-16,16], the MIC in series [1] was 4 µM; in series [3], 8 µM; in series [4] it was 8 µM; in series [5], 4 µM; in series [6], over 250 µM; in series [7] it was 63 µM. Also, the “Lysis20 (highest concentration at which <20% of RBCs are lysed)” value in series [2] stood at 63 μm.
With `CCCCCCCC[n+]1ccc(CCCc2cc[n+](CCCCCCCC)cc2)cc1` [2Pyr-8,8], the MIC in series [1] is 16 µM; in series [3] it was 63 µM; in series [4], 63 µM; in series [5] it was 8 µM; in series [6] it was over 250 µM; in series [7], 32 µM. Moreover, in series [2], the “Lysis20 (highest concentration at which <20% of RBCs are lysed)” value is reported as 125 μm. Also, the “antibacterial resistance (increase in MIC)” value in series [3] (strain not given, Table 1 fits HA-MRSA vs S. aureus) is reported as 8 fold.
Turning to `CCCCCCCCCC[n+]1ccc(CCCc2cc[n+](CCCCCCCCCC)cc2)cc1` [2Pyr-10,10], the MIC in series [1] came to 0.25 µM; in series [3], 1 µM; in series [4], 1 µM; in series [5], 0.5 µM; in series [6], 16 µM; in series [7], 0.5 µM. In addition, in series [2], the “Lysis20 (highest concentration at which <20% of RBCs are lysed)” value was found to be 16 μm.
`CCCCCCCCCCCC[n+]1ccc(CCCc2cc[n+](CCCCCCCCCCCC)cc2)cc1` [2Pyr-12,12]: the MIC in series [1] turned out to be 0.25 µM; in series [3], 0.5 µM; in series [4] it was 0.5 µM; in series [5], 0.5 µM; in series [6], 4 µM; in series [7] it was 1 µM. Moreover, the “Lysis20 (highest concentration at which <20% of RBCs are lysed)” value in series [2] was determined as 4 μm. In addition, the “lysis20 (hemolysis activity)” value in series [2] (sheep RBCs, values restated in text) amounted to 4 µM.
Consider `CCCCCCCC[n+]1cccc(CN(Cc2ccc[n+](CCCCCCCC)c2)Cc2ccc[n+](CCCCCCCC)c2)c1` [M3Pyr-8,8,8], for which the MIC worked out at 1 µM in series [1]; 2 µM in series [3]; 8 µM in series [4]; 2 µM in series [5]; 32 µM in series [6]; 8 µM in series [7]. The “Lysis20 (highest concentration at which <20% of RBCs are lysed)” value in series [2] is over 250 μm.
Take `CCCCCCCCCCCCCC[n+]1ccc(CCCc2cc[n+](CCCCCCCCCCCCCC)cc2)cc1` [2Pyr-14,14]: the MIC in series [1] is 2 µM; in series [3], 2 µM; in series [4] it was 1 µM; in series [5], 8 µM; in series [6] it was 250 µM; in series [7], 4 µM. The “Lysis20 (highest concentration at which <20% of RBCs are lysed)” value in series [2] is recorded as 63 μm.
Regarding `CCCCCCCCCCC[n+]1cccc(CN(Cc2ccc[n+](CCCCCCCCCCC)c2)Cc2ccc[n+](CCCCCCCCCCC)c2)c1` [M3Pyr-11,11,11], the MIC amounted to 0.5 µM in series [1]; 0.5 µM in series [3]; 1 µM in series [4]; 0.5 µM in series [5]; 4 µM in series [6]; 1 µM in series [7]. In series [2], the “Lysis20 (highest concentration at which <20% of RBCs are lysed)” value is on record as 4 μm.
Regarding `CCCCCCCCCCCCC[n+]1cccc(CN(Cc2ccc[n+](CCCCCCCCCCCCC)c2)Cc2ccc[n+](CCCCCCCCCCCCC)c2)c1` [M3Pyr-13,13,13], the MIC in series [1] stood at 0.25 µM; in series [3] it was 0.5 µM; in series [4], 1 µM; in series [5] it was 1 µM; in series [6] it was 8 µM; in series [7] it was 2 µM. Moreover, the “Lysis20 (highest concentration at which <20% of RBCs are lysed)” value in series [2] stood at 2 μm.
Regarding `CCCCCCCCCCCCC[n+]1ccc(CCCc2cc[n+](CCCCCCCCCCCCC)cc2)cc1` [2Pyr-13,13], the MIC in series [1] stood at 0.25 µM; in series [3], 0.5 µM; in series [4], 0.5 µM; in series [5], 0.5 µM; in series [6], 8 µM; in series [7] it was 1 µM. For the same compound, the “Lysis20 (highest concentration at which <20% of RBCs are lysed)” value in series [2] amounted to 16 μm.
Regarding `c1cc(CCCc2ccncc2)ccn1` [Compound 2Pyr, 1,3-di-(4-pyridyl)propane, reference compound], the MIC in series [1], in series [3], in series [4], in series [5], in series [6] and in series [7] was over 250 µM each time. Moreover, the “Lysis20 (highest concentration at which <20% of RBCs are lysed)” value in series [2] was over 250 μm.
Take `CCCCCCCCCCCCCCCCCC[n+]1ccc(CCCc2cc[n+](CCCCCCCCCCCCCCCCCC)cc2)cc1` [2Pyr-18,18]: the MIC in series [1] was 4 µM; in series [3], 16 µM; in series [4] it was 8 µM; in series [5] it was 8 µM; in series [6], over 250 µM; in series [7], over 250 µM. Besides, the “Lysis20 (highest concentration at which <20% of RBCs are lysed)” value in series [2] worked out at 32 μm.
With `CCCCCCCCCCCCCCCC[n+]1cccc(CN(Cc2ccc[n+](CCCCCCCCCCCCCCCC)c2)Cc2ccc[n+](CCCCCCCCCCCCCCCC)c2)c1` [M3Pyr-16,16,16], the MIC in series [1] was 4 µM; in series [3], 2 µM; in series [4], 8 µM; in series [5], 2 µM; in series [6], at least 250 µM; in series [7] it was 125 µM. The “Lysis20 (highest concentration at which <20% of RBCs are lysed)” value in series [2] was found to be 4 μm.
For `c1cc(CN(Cc2ccncc2)Cc2ccncc2)ccn1` [Compound P3Pyr, reference compound], the MIC in series [1], in series [3], in series [4], in series [5], in series [6] and in series [7] was over 250 µM in each case. The “Lysis20 (highest concentration at which <20% of RBCs are lysed)” value in series [2] turned out to be 125 μm.
For `CCCCCCCCCCCCCC[n+]1cccc(CN(Cc2ccc[n+](CCCCCCCCCCCCCC)c2)Cc2ccc[n+](CCCCCCCCCCCCCC)c2)c1` [M3Pyr-14,14,14], the MIC was determined as 1 µM in series [1]; 1 µM in series [3]; 2 µM in series [4]; 2 µM in series [5]; 32 µM in series [6]; 4 µM in series [7]. Also, the “Lysis20 (highest concentration at which <20% of RBCs are lysed)” value in series [2] is on record as 4 μm.
For `CCCCCCCCCC[n+]1cccc(CN(Cc2ccc[n+](CCCCCCCCCC)c2)Cc2ccc[n+](CCCCCCCCCC)c2)c1` [M3Pyr-10,10,10], the MIC in series [1] is 0.5 µM; in series [3], 0.5 µM; in series [4], 1 µM; in series [5], 0.5 µM; in series [6] it was 2 µM; in series [7], 1 µM. Also, the “Lysis20 (highest concentration at which <20% of RBCs are lysed)” value in series [2] turned out to be 4 μm.
